A short description of this data set: Stability (degradation) of sirolimus solid forms. The format is physicochemical.

For the molecule `CO[C@H]1C[C@@H]2CC[C@@H](C)[C@@](O)(O2)C(=O)C(=O)N2CCCC[C@H]2C(=O)O[C@H]([C@H](C)C[C@@H]2CC[C@@H](O)[C@H](OC)C2)CC(=O)[C@H](C)/C=C(\C)[C@@H](O)[C@@H](OC)C(=O)[C@H](C)C[C@H](C)/C=C/C=C/C=C/1C` [sirolimus], the “stability (degradation)” value by setting is: (amorphous form) “degrades at a fast rate”; (crystalline form) “substantially stable”.
